Measured values taken from patent US9682995B2, “Amino-substituted isothiazoles” (BAYER PHARMA AKTIENGESELLSCHAFT, priority 2013, dated 2017).

What was measured:
DU145 = assay: Proliferation assay (crystal violet), DU145; format: cell-based; details: Homo sapiens, DU-145, 96 h; DU145, 4 days; read-out: Inhibition of proliferation IC50 DU145
Procedure: (§1) Cultivated tumor cells (cells were ordered from ATCC, except HeLa-MaTu and HeLa-MaTu-ADR, which were ordered from EPO-GmbH, Berlin) were plated at a density of 1000 to 5000 cells/well, depending on the growth rate of the respective cell line, in a 96-well multititer plate in 200 μL of their respective growth medium supplemented 10% fetal calf serum. After 24 hours, the cells of one plate (zero-point plate) were stained with crystal violet (see below), while the medium of the other plates was replaced by fresh culture medium (200 μl), to which the test substances were added in various concentrations (0 μM, as well as in the range of 0.001-10 μM; the final concentration of the solvent dimethyl sulfoxide was 0.5%). The cells were incubated for 4 days in the presence of test substances. Cell proliferation was determined by staining the cells with crystal violet: the cells were fixed by adding 20 μl/measuring point of an 11% glutaric aldehyde solution for 15 minutes at room temperature. After three washing cycles of the fixed cells with water, the plates were dried at room temperature. The cells were stained by adding 100 μl/measuring point of a 0.1% crystal violet solution (pH 3.0). After three washing cycles of the stained cells with water, the plates were dried at room temperature. The dye was dissolved by adding 100 μl/measuring point of a 10% acetic acid solution. Absorption was determined by photometry at a wavelength of 595 nm. The change of cell number, in percent, was calculated by normalization of the measured values to the absorption values of the zero-point plate (=0%) and the absorption of the untreated (0 μm) cells (=100%). The IC50 values were determined by means of a 4 parameter fit.

B16F10 = assay: Proliferation assay (crystal violet), B16F10; format: cell-based; details: Mus musculus, B16-F10, 96 h; B16F10, 4 days; read-out: Inhibition of proliferation IC50 B16F10
Procedure: as §1

Caco2 = assay: Proliferation assay (crystal violet), Caco2; format: cell-based; details: Homo sapiens, Caco-2, 96 h; Caco2, 4 days; read-out: Inhibition of proliferation IC50 Caco2
Procedure: as §1

NCI-H460 = assay: Proliferation assay (crystal violet), NCI-H460; format: cell-based; details: Homo sapiens, 96 h; NCI-H460, 4 days; read-out: Inhibition of proliferation IC50 NCI-H460
Procedure: as §1

HeLa-MaTu-ADR = assay: Proliferation assay (crystal violet), HeLa-MaTu-ADR; format: cell-based; details: 96 h, 4 days, read-out: Inhibition of proliferation IC50 HeLa-MaTu-ADR
Procedure: as §1

[1] = target: 456 kinases (of these 395 non-mutant kinases) (Homo sapiens, UniProt P23443); assay: Kinase Profiling (KINOMEscan); format: binding; details: S6K1; 10 μM
[2] = target: 456 kinases (of these 395 non-mutant kinases) (Homo sapiens, UniProt Q14004); assay: Kinase Profiling (KINOMEscan); format: binding; details: CDC2L5; 10 μM
[3] = target: 456 kinases (of these 395 non-mutant kinases) (Homo sapiens, UniProt P00519, E255K); assay: Kinase Profiling (KINOMEscan); format: binding; details: ABL1(E255K)-phosphorylated; 10 μM
[4] = target: 456 kinases (of these 395 non-mutant kinases) (Homo sapiens, UniProt P54753); assay: Kinase Profiling (KINOMEscan); format: binding; details: EPHB3; 10 μM
Sequence of 456 kinases (of these 395 non-mutant kinases) (Homo sapiens, UniProt P54753) (P54753 34-998 limits assumed, change not shown): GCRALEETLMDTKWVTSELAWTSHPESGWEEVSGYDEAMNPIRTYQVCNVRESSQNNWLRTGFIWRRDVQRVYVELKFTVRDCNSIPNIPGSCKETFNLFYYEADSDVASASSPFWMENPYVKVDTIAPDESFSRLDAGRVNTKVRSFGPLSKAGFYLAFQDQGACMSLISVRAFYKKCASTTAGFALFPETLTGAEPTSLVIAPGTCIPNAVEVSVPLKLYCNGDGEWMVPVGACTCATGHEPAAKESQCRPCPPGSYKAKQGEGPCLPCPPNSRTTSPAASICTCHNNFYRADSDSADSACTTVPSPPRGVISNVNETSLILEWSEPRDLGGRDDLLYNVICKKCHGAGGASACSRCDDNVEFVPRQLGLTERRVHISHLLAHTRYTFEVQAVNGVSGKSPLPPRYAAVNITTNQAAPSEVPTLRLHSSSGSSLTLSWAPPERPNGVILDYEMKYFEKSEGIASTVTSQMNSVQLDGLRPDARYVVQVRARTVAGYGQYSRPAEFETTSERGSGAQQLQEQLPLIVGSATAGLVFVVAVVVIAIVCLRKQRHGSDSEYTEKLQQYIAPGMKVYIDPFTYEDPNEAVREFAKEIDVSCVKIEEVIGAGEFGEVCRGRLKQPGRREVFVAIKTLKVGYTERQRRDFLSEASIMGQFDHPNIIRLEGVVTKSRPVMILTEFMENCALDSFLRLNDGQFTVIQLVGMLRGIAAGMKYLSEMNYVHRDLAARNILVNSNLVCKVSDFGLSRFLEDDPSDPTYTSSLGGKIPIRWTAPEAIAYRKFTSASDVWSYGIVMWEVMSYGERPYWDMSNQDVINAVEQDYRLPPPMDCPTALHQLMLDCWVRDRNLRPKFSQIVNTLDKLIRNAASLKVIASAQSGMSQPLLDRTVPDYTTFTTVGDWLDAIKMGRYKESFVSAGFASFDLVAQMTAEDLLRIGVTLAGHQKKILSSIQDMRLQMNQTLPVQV

[5] = target: 456 kinases (of these 395 non-mutant kinases) (Homo sapiens, UniProt Q9HBY8); assay: Kinase Profiling (KINOMEscan); format: binding; details: SGK2; 10 μM
[6] = target: 456 kinases (of these 395 non-mutant kinases) (Homo sapiens, UniProt P00533, G719S); assay: Kinase Profiling (KINOMEscan); format: binding; details: EGFR(G719S); 10 μM
[7] = target: 456 kinases (of these 395 non-mutant kinases) (Homo sapiens, UniProt Q9BRS2); assay: Kinase Profiling (KINOMEscan); format: binding; details: RIOK1; 10 μM
[8] = target: 456 kinases (of these 395 non-mutant kinases) (Homo sapiens, UniProt Q96BR1); assay: Kinase Profiling (KINOMEscan); format: binding; details: SGK3; 10 μM
[9] = target: 456 kinases (of these 395 non-mutant kinases) (Homo sapiens, UniProt Q92772); assay: Kinase Profiling (KINOMEscan); format: binding; details: CDKL2; 10 μM
[10] = target: 456 kinases (of these 395 non-mutant kinases) (Homo sapiens, UniProt P54646); assay: Kinase Profiling (KINOMEscan); format: binding; details: AMPK-alpha2; 10 μM
[11] = target: 456 kinases (of these 395 non-mutant kinases) (Homo sapiens, UniProt Q8NEV4); assay: Kinase Profiling (KINOMEscan); format: binding; details: MYO3A; 10 μM
[12] = target: 456 kinases (of these 395 non-mutant kinases) (Homo sapiens, UniProt Q13470); assay: Kinase Profiling (KINOMEscan); format: binding; details: TNK1; 10 μM
[13] = target: 456 kinases (of these 395 non-mutant kinases) (Homo sapiens, UniProt Q13237); assay: Kinase Profiling (KINOMEscan); format: binding; details: PRKG2; 10 μM
Sequence of 456 kinases (of these 395 non-mutant kinases) (Homo sapiens, UniProt Q13237) (Q13237 2-762 limits assumed, change not shown): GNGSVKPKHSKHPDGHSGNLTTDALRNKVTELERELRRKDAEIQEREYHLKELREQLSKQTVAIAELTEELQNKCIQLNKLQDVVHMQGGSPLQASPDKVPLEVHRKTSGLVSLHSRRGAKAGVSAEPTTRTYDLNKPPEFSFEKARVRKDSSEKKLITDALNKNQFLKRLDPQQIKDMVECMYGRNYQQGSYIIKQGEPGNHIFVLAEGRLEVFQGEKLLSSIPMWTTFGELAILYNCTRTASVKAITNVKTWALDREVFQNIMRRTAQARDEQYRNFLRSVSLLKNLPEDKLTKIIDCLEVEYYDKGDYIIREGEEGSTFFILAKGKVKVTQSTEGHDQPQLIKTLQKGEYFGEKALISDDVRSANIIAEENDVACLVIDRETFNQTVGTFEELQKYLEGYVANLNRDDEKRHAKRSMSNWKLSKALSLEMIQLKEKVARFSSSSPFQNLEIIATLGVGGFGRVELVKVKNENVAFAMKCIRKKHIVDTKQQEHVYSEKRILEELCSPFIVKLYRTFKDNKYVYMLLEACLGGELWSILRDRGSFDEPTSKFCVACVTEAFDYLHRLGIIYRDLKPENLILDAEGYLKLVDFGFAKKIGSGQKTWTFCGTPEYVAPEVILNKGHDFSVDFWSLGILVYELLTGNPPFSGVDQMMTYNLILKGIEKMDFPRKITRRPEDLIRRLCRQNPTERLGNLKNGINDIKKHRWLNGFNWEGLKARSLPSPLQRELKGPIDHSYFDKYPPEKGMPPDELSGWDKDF

[14] = target: 456 kinases (of these 395 non-mutant kinases) (Homo sapiens, UniProt Q9NYY3); assay: Kinase Profiling (KINOMEscan); format: binding; details: PLK2; 10 μM
[15] = target: 456 kinases (of these 395 non-mutant kinases) (Homo sapiens, UniProt O15264); assay: Kinase Profiling (KINOMEscan); format: binding; details: p38-delta; 10 μM
[16] = target: 456 kinases (of these 395 non-mutant kinases) (Homo sapiens, UniProt P17948); assay: Kinase Profiling (KINOMEscan); format: binding; details: FLT1; 10 μM
Sequence of 456 kinases (of these 395 non-mutant kinases) (Homo sapiens, UniProt P17948) (P17948 27-1338 limits assumed, change not shown): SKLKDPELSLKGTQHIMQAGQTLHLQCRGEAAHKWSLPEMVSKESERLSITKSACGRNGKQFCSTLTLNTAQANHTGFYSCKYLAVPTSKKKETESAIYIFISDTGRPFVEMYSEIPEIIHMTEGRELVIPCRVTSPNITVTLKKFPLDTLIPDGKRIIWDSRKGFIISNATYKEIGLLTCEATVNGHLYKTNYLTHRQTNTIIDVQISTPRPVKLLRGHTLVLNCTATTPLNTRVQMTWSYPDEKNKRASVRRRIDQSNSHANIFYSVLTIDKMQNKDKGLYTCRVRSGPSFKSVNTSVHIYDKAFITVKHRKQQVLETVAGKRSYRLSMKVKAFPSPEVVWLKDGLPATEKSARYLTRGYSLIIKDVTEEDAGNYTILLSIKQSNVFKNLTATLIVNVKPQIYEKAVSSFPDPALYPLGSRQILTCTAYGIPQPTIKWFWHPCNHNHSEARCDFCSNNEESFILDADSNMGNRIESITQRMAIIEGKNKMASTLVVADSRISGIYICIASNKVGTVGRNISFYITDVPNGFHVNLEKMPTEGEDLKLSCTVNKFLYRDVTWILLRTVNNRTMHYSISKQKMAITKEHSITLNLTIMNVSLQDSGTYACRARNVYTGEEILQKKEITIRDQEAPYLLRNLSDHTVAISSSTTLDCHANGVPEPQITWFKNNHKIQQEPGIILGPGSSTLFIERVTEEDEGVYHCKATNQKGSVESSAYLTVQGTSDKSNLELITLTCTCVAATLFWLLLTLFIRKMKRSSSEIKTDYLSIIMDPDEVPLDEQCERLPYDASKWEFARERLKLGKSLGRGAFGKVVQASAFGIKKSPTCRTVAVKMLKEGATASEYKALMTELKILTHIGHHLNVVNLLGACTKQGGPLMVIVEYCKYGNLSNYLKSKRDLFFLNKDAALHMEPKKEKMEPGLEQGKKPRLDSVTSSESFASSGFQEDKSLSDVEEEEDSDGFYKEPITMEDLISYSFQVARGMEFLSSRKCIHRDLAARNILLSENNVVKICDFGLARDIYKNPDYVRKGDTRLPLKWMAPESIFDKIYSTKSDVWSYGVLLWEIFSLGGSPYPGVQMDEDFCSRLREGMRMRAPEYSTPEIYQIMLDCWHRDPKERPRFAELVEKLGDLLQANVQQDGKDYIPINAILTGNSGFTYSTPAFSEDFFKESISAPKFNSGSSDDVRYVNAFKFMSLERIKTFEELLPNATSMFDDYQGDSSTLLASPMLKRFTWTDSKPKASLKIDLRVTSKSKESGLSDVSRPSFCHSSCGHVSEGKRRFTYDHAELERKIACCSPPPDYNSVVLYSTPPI

[17] = target: 456 kinases (of these 395 non-mutant kinases) (Homo sapiens, UniProt P07949); assay: Kinase Profiling (KINOMEscan); format: binding; details: RET; 10 μM
Sequence of 456 kinases (of these 395 non-mutant kinases) (Homo sapiens, UniProt P07949) (P07949 29-1114 limits assumed, change not shown): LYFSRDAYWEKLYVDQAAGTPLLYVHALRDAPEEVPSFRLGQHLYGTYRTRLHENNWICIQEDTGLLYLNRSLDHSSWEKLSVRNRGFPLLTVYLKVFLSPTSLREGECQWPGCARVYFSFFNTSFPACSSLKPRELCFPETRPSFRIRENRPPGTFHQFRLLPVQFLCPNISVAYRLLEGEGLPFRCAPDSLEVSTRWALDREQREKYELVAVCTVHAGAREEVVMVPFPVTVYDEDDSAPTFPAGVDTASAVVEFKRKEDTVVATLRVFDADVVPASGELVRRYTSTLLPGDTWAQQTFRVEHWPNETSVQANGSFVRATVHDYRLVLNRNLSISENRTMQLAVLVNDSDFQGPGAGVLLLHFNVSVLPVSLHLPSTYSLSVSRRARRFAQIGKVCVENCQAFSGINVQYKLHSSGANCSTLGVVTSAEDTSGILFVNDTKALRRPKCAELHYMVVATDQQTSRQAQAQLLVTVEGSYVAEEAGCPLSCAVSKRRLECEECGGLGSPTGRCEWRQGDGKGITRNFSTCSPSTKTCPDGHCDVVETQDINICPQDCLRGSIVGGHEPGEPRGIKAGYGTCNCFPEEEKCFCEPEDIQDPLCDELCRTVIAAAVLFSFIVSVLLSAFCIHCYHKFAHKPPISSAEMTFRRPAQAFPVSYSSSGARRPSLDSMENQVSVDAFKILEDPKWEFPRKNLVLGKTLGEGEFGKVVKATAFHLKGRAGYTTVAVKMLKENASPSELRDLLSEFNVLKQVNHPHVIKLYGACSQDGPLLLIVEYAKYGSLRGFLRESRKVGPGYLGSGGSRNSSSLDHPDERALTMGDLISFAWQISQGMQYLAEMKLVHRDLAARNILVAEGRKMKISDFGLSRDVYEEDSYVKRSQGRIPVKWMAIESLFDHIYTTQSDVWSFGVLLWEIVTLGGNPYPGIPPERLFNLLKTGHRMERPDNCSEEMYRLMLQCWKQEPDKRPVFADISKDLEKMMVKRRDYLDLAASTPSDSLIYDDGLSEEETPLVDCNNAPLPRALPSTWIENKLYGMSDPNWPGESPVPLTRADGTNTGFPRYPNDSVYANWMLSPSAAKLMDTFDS

[18] = target: 456 kinases (of these 395 non-mutant kinases) (Homo sapiens, UniProt O75116); assay: Kinase Profiling (KINOMEscan); format: binding; details: ROCK2; 10 μM
[19] = target: 456 kinases (of these 395 non-mutant kinases) (Homo sapiens, UniProt P42679); assay: Kinase Profiling (KINOMEscan); format: binding; details: CTK; 10 μM
[20] = target: 456 kinases (of these 395 non-mutant kinases) (Homo sapiens, UniProt O94806); assay: Kinase Profiling (KINOMEscan); format: binding; details: PRKD3; 10 μM

| Structure (SMILES) | IC50 (DU145) [nM] | IC50 (B16F10) [nM] | IC50 (Caco2) [nM] | IC50 (NCI-H460) [nM] | IC50 (HeLa-MaTu-ADR) [nM] | further results |
| --- | --- | --- | --- | --- | --- | --- |
| Cc1nsc(Nc2cc(C#N)ccn2)c1C(=O)Nc1ccc(F)c(F)c1 [Example 27, 5-[(4-Cyanopyridin-2-yl)amino]-N-(3,4-difluorophenyl)-3-methyl-1,2-thiazole-4-carboxamide] | 350 | 220 | 450 | 220 | 240 | – |
| CCc1ccccc1NC(=O)c1c(C)nsc1Nc1ccnc(C#N)n1 [Example 6, 5-[(2-Cyanopyrimidin-4-yl)amino]-N-(2-ethylphenyl)-3-methyl-1,2-thiazole-4-carboxamide] | 3000 | 2300 | 2300 | 2100 | 1900 | – |
| CCc1ccccc1NC(=O)c1c(C)nsc1Nc1cnc2cc(F)ccc2n1 [Example 20, N-(2-Ethylphenyl)-5-[(6-fluoroquinoxalin-2-yl)amino]-3-methyl-1,2-thiazole-4-carboxamide] | 600 | 530 | 550 | 440 | 500 | % Ctrl @ 10 μM [1]: 100 % Ctrl; % Ctrl @ 10 μM [2]: 100 % Ctrl; % Ctrl @ 10 μM [3]: 100 % Ctrl; % Ctrl @ 10 μM [4]: 82 % Ctrl; % Ctrl @ 10 μM [5]: 100 % Ctrl; % Ctrl @ 10 μM [6]: 97 % Ctrl; % Ctrl @ 10 μM [7]: 100 % Ctrl; % Ctrl @ 10 μM [8]: 100 % Ctrl; % Ctrl @ 10 μM [9]: 100 % Ctrl; % Ctrl @ 10 μM [10]: 100 % Ctrl; % Ctrl @ 10 μM [11]: 86 % Ctrl; % Ctrl @ 10 μM [12]: 86 % Ctrl; % Ctrl @ 10 μM [13]: 100 % Ctrl; % Ctrl @ 10 μM [14]: 90 % Ctrl; % Ctrl @ 10 μM [15]: 100 % Ctrl; % Ctrl @ 10 μM [16]: 74 % Ctrl; % Ctrl @ 10 μM [17]: 88 % Ctrl; % Ctrl @ 10 μM [18]: 100 % Ctrl; % Ctrl @ 10 μM [19]: 61 % Ctrl; % Ctrl @ 10 μM [20]: 97 % Ctrl |
| Cc1nsc(Nc2ccc(C#N)cn2)c1C(=O)Nc1ccc(F)c(F)c1 [Example 28, 5-[(5-Cyanopyridin-2-yl)amino]-N-(3,4-difluorophenyl)-3-methyl-1,2-thiazole-4-carboxamide] | 320 | 130 | 210 | 99 | 120 | – |
| COc1ccc(NC(=O)c2c(C)nsc2Nc2cnc3cccc(C)c3n2)cn1 [Example 22, N-(6-methoxypyridin-3-yl)-3-methyl-5-[(8-methylquinoxalin-2-yl)amino]-1,2-thiazole-4-carboxamide] | 2200 | 950 | 1600 | 790 | 760 | – |
| Cc1nsc(Nc2cnc3ccccc3n2)c1C(=O)Nc1ccc(Cl)c(F)c1 [Example 40, N-(4-Chloro-3-fluorophenyl)-3-methyl-5-(quinoxalin-2-ylamino)-1,2-thiazole-4-carboxamide] | 590 | 440 | 470 | 290 | 330 | – |

The next lines start with results.

| IC50 (DU145) [nM] | IC50 (B16F10) [nM] | IC50 (Caco2) [nM] | IC50 (NCI-H460) [nM] | IC50 (HeLa-MaTu-ADR) [nM] | Structure (SMILES) | further results |
| --- | --- | --- | --- | --- | --- | --- |
| 980 | 220 | 200 | 520 | 310 | Cc1nsc(Nc2nc3c(C(F)(F)F)cccc3s2)c1C(=O)Nc1ccc(Cl)c(F)c1 [Example 53, N-(4-Chloro-3-fluorophenyl)-3-methyl-5-{[4-(trifluoromethyl)-1,3-benzothiazol-2-yl]amino}-1,2-thiazole-4-carboxamide] | – |
| 180 | 120 | 110 | 86 | 110 | Cc1nsc(Nc2cnc3cc(F)ccc3n2)c1C(=O)Nc1ccc(F)c(F)c1 [Example 46, N-(3,4-Difluorophenyl)-5-[(6-fluoroquinoxalin-2-yl)amino]-3-methyl-1,2-thiazole-4-carboxamide] | – |
| 750 | 680 | 170 | 350 | 640 | CCc1ccccc1NC(=O)c1c(C)nsc1Nc1cnc2ccc(Cl)cc2n1 [Example 41, 5-[(7-Chloroquinoxalin-2-yl)amino]-N-(2-ethylphenyl)-3-methyl-1,2-thiazole-4-carboxamide] | – |
| 390 | 380 | 150 | 300 | 140 | CCOC(=O)c1cnn2ccc(Nc3snc(C)c3C(=O)Nc3ccc(F)c(F)c3)nc12 [Example 55, Ethyl 5-({4-[(3,4-difluorophenyl)carbamoyl]-3-methyl-1,2-thiazol-5-yl}amino)-pyrazolo[1,5-a]pyrimidine-3-carboxylate] | – |
| 1300 | 1200 | 980 | 520 | 690 | Cc1nsc(Nc2cc(C#N)ccn2)c1C(=O)Nc1ccc(Oc2ccc(F)cc2F)nc1 [Example 114, 5-[(4-Cyanopyridin-2-yl)amino]-N-[6-(2,4-difluorophenoxy)pyridin-3-yl]-3-methyl-1,2-thiazole-4-carboxamide] | – |
| 410 | 300 | 270 | 520 | 210 | Cc1nsc(Nc2cnc3ccccc3n2)c1C(=O)Nc1ccc(F)c(F)c1 [Example 50, N-(3,4-Difluorophenyl)-3-methyl-5-(quinoxalin-2-ylamino)-1,2-thiazole-4-carboxamide] | – |
| 49 | 110 | 360 | 180 | 83 | COc1ccc(NC(=O)c2c(C)nsc2Nc2nc3c(C(F)(F)F)cccc3s2)cc1F [Example 47, N-(3-Fluoro-4-methoxyphenyl)-3-methyl-5-{[4-(trifluoromethyl)-1,3-benzothiazol-2-yl]amino}-1,2-thiazole-4-carboxamide] | – |
